Experimental data from patent publication US11584728B2, “Compositions and methods for the prevention and/or treatment of mitochondrial disease, including Friedreich's ataxia” (STEALTH BIOTHERAPEUTICS INC., priority 2019, dated 2023).
pEC50: −log10 of the molar value. Read-outs that look alike come from different tables or passages of the source.

How the values were obtained:
[1] = tested on: frataxin deficient fibroblasts (GM03665); assay: Frataxin Deficient Fibroblast Viability Assay (BSO Assay); settings: Homo sapiens, 48 h; for EC50: read-out: EC50 (nM) BSO Assay; for pEC50: read-out: BSO Assay
[2] = tested on: HepG2 human hepatocarcinoma cells; assay: Rotenone ATP-Assay (Complex I by-pass); assay type: cell-based; settings: for Activity in both the BSO Assay and the Rotenone ATP Assay (in words): circumvent BSO induced cell death and restore ATP production when Complex I is inhibited; for pEC50: Homo sapiens, 1 h, HepG2 cells, 50 micromolar rotenone, 60 minutes
Protocol: Example 18: Rotenone ATP-Assay
Introduction: • This assay has been adapted from Haefeli R H, Erb M, Gemperli A C, Robay D, Courdier Fruh I, et al. (2011) NQO1-Dependent Redox Cycling of Idebenone: Effects on Cellular Redox Potential and Energy Levels. PLoS ONE 6(3): e17963. HepG2 human hepatocarcinoma cells were co-incubated with the electron transport chain Complex I toxin rotenone +/−compounds of interest and the corresponding effect on ATP synthesis was measured with a bioluminescent substrate.
Assay Experimental: • In brief, HepG2 cells were plated at 25,000 cells per well in low glucose (1 gram/Liter) DMEM medium +10% fetal calf serum and incubated for 24 hours. The following day, the media was decanted and subsequently replaced with glucose free/serum free DMEM which has been supplemented with 50 micromolar rotenone and compound of interest. Serial dilutions of compound were prepared in 3× dilutions beginning at 25 micromolar. The cells were incubated for 60 minutes in a humidified tissue culture incubator. Following incubation, ATP levels were quantified via bioluminescent assay (Promega […]) and readings were captured on a standard microplate reader.
Calculations: • ATP bioluminescence is plotted versus the log of compound of interest and data were used to generate EC50 values. Curve fitting was performed using a sigmoidal dose response curve fit function (GraphPad Prism software).
Robustness of curve fit was assessed as a quality control measure, with an R squared value of at least 0.80 being required for a successful curve fit. Compounds of interest showing an increase in ATP bioluminescence relative to vehicle control were verified in an independent biological replicate of n=3 technical replicates per dose.
Discussion: • This assay is a direct measure of the ability of compounds of interest to restore ATP production under conditions of inhibition of Complex I of the mitochondrial electron transport chain. As the majority of ATP produced via the electron transport chain is thought to derive from Complex I activity, significant impairment in Complex I function has dire biological consequences. Of note, Complex I mutations are thought to drive pathophysiology in multiple mitochondrial diseases, including Leigh syndrome and Leber's Hereditary Optic Neuropathy (LHON), while diminished Complex I activity and the resultant attenuation of ATP production has been shown in neurodegenerative diseases, including Friedreich's Ataxia, Parkinson's Disease and Huntington's Disease.

Nrf-2 = Nrf-2 Activation Assay (Nrf-2 Assay); assay type: cell-based, human; settings: 1 μM, 24 hours; for Nrf-2 Assay: Table 7, GM03665 fibroblasts, qPCR of Nrf-2 responsive genes
Protocol: Example 21: Nrf-2 Activation Assay (Nrf-2 Assay)
This assay was developed internally and was designed to determine if the novel test compounds disclosed herein active Nrf-2 and thereby promote resolution of inflammation by the mechanism believed to be responsible for the activity of omaveloxolone.
Briefly, GM03665 Friedreich Ataxia patient fibroblasts were grown in 12 Well Plates (TC Cell+F) (Sarstedt, Nümbrecht Germany), at a density of 12×10^4 cells/per well in DMEM/F12 (Gibco, ThermoFisher Scientific, Waltham, Mass., USA) cell media supplemented with 10% FBS and 1% Pen/Strep. Cells were left to rest overnight at 37° C. in a humidified atmosphere with 5% CO2 to allow attachment of the cells to the culture plate. Before continuing assay visual inspection of each well was done by light microscopy to detect any possible bacterial and fungal contamination. […] After incubation, cell media was removed and total RNA from the cells was isolated using E.Z.N.A.® Total RNA Kit I (Omega Bio-tek, Norcross, Ga., USA) spin columns, and first-strand cDNA synthesis was carried out using a High Capacity cDNA Reverse Transcription Kit (Applied Biosystems™, Foster City, Calif.) following the manufacturer's instructions. qPCR analysis of gene expression was performed by mixing SYBR® Green Master Mix (Applied Biosystems™) with synthesized cDNA and forward and reverse primers. […] (60 cycles), and 95° C. for 60 seconds, followed by melt curve analysis at 72-95° C., 0.3° C./sec. The relative expression levels for each gene were calculated with the ΔΔCt method and normalized to the expression of REEP5 and SNRPD3 genes.

GM03665 cells = assay: RSL3 Toxicity Assay (RSL3 Assay); assay type: cell-based, human; settings: Homo sapiens, GM03665 cells, RSL3 2 μM, 24 hours, MTT; for EC50: Table 3, mean of at least three measurements, nM printed in Table 7, read-out: RSL3 Assay EC50, Mean; for pEC50: Table 7, read-out: RSL3 Assay EC50
Protocol: Example 19: RSL3 Toxicity Assay (RSL3 Assay)
In brief, GM03665 cells (Coriell Institute) were seeded in 96-well plates (Sarstedt) in DMEM cell culture media containing 10% Fetal Bovine serum and 1% Penicillin-Streptomycin (Pen-Strep) antibiotic mix at the amount of 2×10^4/mL (100 μL or 2×10^3 cells per well). Cells were left to rest overnight at 37° C. in a humidified atmosphere with 5% CO2 to allow attachment of the cells to the culture plate. Test compounds were prepared as DMSO stocks (10 mM) and were serially diluted in cell culture media to obtain 2× working solutions. Cell media was discarded and replaced by 50 μL of test compound solutions or cell media with vehicle for control wells. Within 15 minutes, 2× working solution (4 μM) of 1S,3R-RSL3 (CAS #1219810-16-8, Sigma-Aldrich) (diluted from 5 mM DMSO stock in cell culture media) was added. Final reaction volume was 100 μL and final DMSO concentration in reaction was kept below 0.2% (v/v) and equal in all wells. Final RSL3 concentration was 2 μM and test compound final concentrations in reaction were up to 1000 nM. After 24 hours of incubation cell viability was assessed by MTT test. MTT (Sigma-Aldrich) solution 1 mg/mL in 1×PBS (pH=7,4) was prepared 1 hour before the assay and filtered through Filtropur S 0.2 filters (Sarstedt). Cell media with test compounds was discarded and 100 μL of MTT solution was added to cells. The plates were incubated for 2 hours at +37° C. Thereafter, the MTT solution was removed and 100 μL of isopropanol was added to dissolve sediment. Absorption at 570 and 650 nm was measured using Hidex Sense microplate reader.

[3] = ATP bioluminescence, read-out: EC50 Rotenone ATP Assay
[4] = Table 7, read-out: Rotenone ATP Assay EC50

SMILES	EC50 [1] [nM]	pEC50 [2, 3]	pEC50 [1]	also measured
C/C(=C\CC[C@]1(C)CCc2c(C)c(O)c(C)c(C)c2O1)CCC=C(F)F [Compound 56, (R,E)-2-(8,8-difluoro-4-methylocta-3,7-dien-1-yl)-2,5,7,8-tetramethylchroman-6-ol]	< 100	–	–	–
Cc1c(C)c2c(c(C)c1O)CC[C@@](C)(CCC=C(F)F)O2 [Compound 67, (R)-2-(4,4-difluorobut-3-en-1-yl)-2,5,7,8-tetramethylchroman-6-ol]	< 100	–	–	Activity in both the BSO Assay and the Rotenone ATP Assay (in words) [2]: possess both activities
CC1=C(C)C(=O)C(CC[C@](C)(O)CC/C=C(\C)CC/C=C(\C)CCC=C(CF)CF)=C(C)C1=O [Compound A, 2-((R,6E,10E)-16-fluoro-15-(fluoromethyl)-3-hydroxy-3,7,11-trimethylhexadeca-6,10,14-trien-1-yl)-3,5,6-trimethylcyclohexa-2,5-diene-1,4-dione]	< 100	–	–	–
CC(=CCC/C(C)=C/CC/C(C)=C/CC[C@@](C)(O)CCC1=C(C)C(=O)C(C)=C(C)C1=O)CF [Compound B, 2-((R,6E,10E)-16-fluoro-3-hydroxy-3,7,11,15-tetramethylhexadeca-6,10,14-trien-1-yl)-3,5,6-trimethylcyclohexa-2,5-diene-1,4-dione]	< 100	–	–	–
CC1=C(C)C(=O)C(CC[C@](C)(O)CC/C=C(\C)CC/C=C(\C)CCC=C(F)F)=C(C)C1=O [Compound C, 2-((R,6E,10E)-15,15-difluoro-3-hydroxy-3,7,11-trimethylpentadeca-6,10,14-trien-1-yl)-3,5,6-trimethylcyclohexa-2,5-diene-1,4-dione]	< 100	–	–	–
CC1=C(C)C(=O)C(CC[C@](C)(O)CC/C=C(\C)CC/C=C(\C)CCC=C2CCC2)=C(C)C1=O [Compound D, 2-((R,6E,10E)-14-cyclobutylidene-3-hydroxy-3,7,11-trimethyltetradeca-6,10-dien-1-yl)-3,5,6-trimethylcyclohexa-2,5-diene-1,4-dione]	< 100	< 5.52	–	–
CC1=C(C)C(=O)C(CC[C@](C)(O)CC/C=C(\C)CC/C=C(\C)CCC=C2CCCC2)=C(C)C1=O [Compound F, 2-((R,6E,10E)-14-cyclopentylidene-3-hydroxy-3,7,11-trimethyltetradeca-6,10-dien-1-yl)-3,5,6-trimethylcyclohexa-2,5-diene-1,4-dione]	< 100	–	–	–
CC1=C(C)C(=O)C(CC[C@](C)(O)CC/C=C(\C)CC/C=C(\C)CCC=C2CCCCC2)=C(C)C1=O [Compound G, 2-((R,6E,10E)-14-cyclohexylidene-3-hydroxy-3,7,11-trimethyltetradeca-6,10-dien-1-yl)-3,5,6-trimethylcyclohexa-2,5-diene-1,4-dione]	< 100	–	–	–
CC1=C(C)C(=O)C(CC[C@](C)(O)CC/C=C(\C)CCC=C(F)F)=C(C)C1=O [Compound H, (R,E)-2-(11,11-difluoro-3-hydroxy-3,7-dimethylundeca-6,10-dien-1-yl)-3,5,6-trimethylcyclohexa-2,5-diene-1,4-dione]	100 to 1000	> 6.00	6.79	Nrf-2 Assay (Nrf-2): Inactive; pEC50 [2, 4]: 5.94; EC50 (GM03665 cells): 179 nM; pEC50 (GM03665 cells): 6.75
CC1=C(C)C(=O)C(CC[C@](C)(O)CCC=C(F)F)=C(C)C1=O [Compound I, (R)-2-(7,7-difluoro-3-hydroxy-3-methylhept-6-en-1-yl)-3,5,6-trimethylcyclo-hexa-2,5-diene-1,4-dione]	100 to 1000	< 5.52	–	–
CC1=C(C)C(=O)C(CC[C@@](C)(O)CC/C=C(\C)CC/C=C(\C)CCC=C(F)F)=C(C)C1=O [Compound J, 2-((S,6E,10E)-15,15-difluoro-3-hydroxy-3,7,11-trimethylpentadeca-6,10,14-trien-1-yl)-3,5,6-trimethylcyclohexa-2,5-diene-1,4-dione]	< 100	–	–	–
CC1=C(C)C(=O)C(CC[C@@](C)(O)CCC=C(F)F)=C(C)C1=O [Compound K, (S)-2-(7,7-difluoro-3-hydroxy-3-methylhept-6-en-1-yl)-3,5,6-trimethylcyclo-hexa-2,5-diene-1,4-dione]	< 100	< 5.52	–	–
CC1=C(C)C(=O)C(CC[C@@](C)(O)CC/C=C(\C)CCC=C(F)F)=C(C)C1=O [Compound L, (S,E)-2-(11,11-difluoro-3-hydroxy-3,7-dimethylundeca-6,10-dien-1-yl)-3,5,6-trimethylcyclohexa-2,5-diene-1,4-dione]	< 100	> 6.00	7.41	Nrf-2 Assay (Nrf-2): Inactive; pEC50 [2, 4]: 6.05; Activity in both the BSO Assay and the Rotenone ATP Assay (in words) [2]: possess both activities; EC50 (GM03665 cells): 41.9 nM; pEC50 (GM03665 cells): 7.38
CC1=C(C)C(=O)C(CC[C@](C)(O)CCCCCCCCC(F)(F)F)=C(C)C1=O [Compound N, (R)-2,3,5-trimethyl-6-(12,12,12-trifluoro-3-hydroxy-3-methyldodecyl)cyclo-hexa-2,5-diene-1,4-dione]	100 to 1000	5.52 to 6.00	6.84	Nrf-2 Assay (Nrf-2): Inactive; pEC50 [2, 4]: 5.63; Activity in both the BSO Assay and the Rotenone ATP Assay (in words) [2]: possess both activities; EC50 (GM03665 cells): 93 nM; pEC50 (GM03665 cells): 7.03
COC1=C(OC)C(=O)C(CCCCCCCCCCO)=C(C)C1=O [Idebenone, reference compound]	–	5.52 to 6.00	< 6.00	pEC50 [2, 4]: 5.81
CC1(C)CC[C@]2(NC(=O)C(C)(F)F)CC[C@]3(C)[C@H](C(=O)C=C4[C@@]5(C)C=C(C#N)C(=O)C(C)(C)[C@@H]5CC[C@]43C)[C@@H]2C1 [Omaveloxolone, reference compound]	< 100	< 5.52	7.31	Activation of Nrf-2 responsive genes (in words, FIG. 7) (Nrf-2): positive; Nrf-2 Assay (Nrf-2): Active
